# Data: PubChem BioAssay AID1259411 (Chemical Carcinogenesis Research Information System (CCRIS), 2018)
# Active and inactive are the calls of the source. The rule behind the calls is not given here.
# Test system: rodent carcinogenicity bioassays, tumor incidence
# Test: CCRIS carcinogenicity studies
# Method in brief: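 Archive of carcinogenicity, mutagenicity, tumor promotion and tumor inhibition results drawn from journals, NCI reports and other sources, expert-reviewed; covers 1985-2011 and is no longer updated.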
compound,measurement,setting,value
c1ccc2cc3c(ccc4ccccc43)cc2c1,carcinogen call,"Species: MOUSE, Route: DERMAL, Tumor Site: Type of Lesion: INTEGUMENTARY SYSTEM (SKIN)",active; positive
same,carcinogen call,"Species: MOUSE, Route: IMPLANT, Tumor Site: Type of Lesion: URINARY BLADDER",active; positive
same,carcinogen call,"Species: MOUSE, Route: ORAL, Tumor Site: Type of Lesion: LIVER, LUNG",active; positive
same,carcinogen call,"Species: MOUSE, Route: SUBCUTANEOUS, Tumor Site: Type of Lesion: INJECTION SITE",active; positive
same,carcinogen call,"Species: MOUSE, Strain/Sex: B6C3F1/MALE, Route: INTRAPERITONEAL, Dose: 0, 1600 NMOL IN 35 µL DMSO TOTAL DOSE AT 1 D (1/7 TOTAL DOSE), 8 D (2/7 TOTAL DOSE), AND 15 D (4/7 TOTAL DOSE) OF AGE (S, Tumor Site: Type of Lesion: LIVER: ADENOMA, CARCINOMA",active; positive
same,carcinogen call,"Species: MOUSE, Strain/Sex: SWISS/MALE,FEMALE, Route: INTRAPERITONEAL, Dose: 0, 2800 NMOL TOTAL DOSE, D 1, 8, AND 15 OF LIFE, Dose: 0, 2800 NMOL TOTAL DOSE, D 1, 8, AND 15 OF LIFE, Tumor Site: Type of Lesion: LUNG: ADENOMA, MALIGNANT LYMPHOMA",active; positive
Oc1cc(Cl)ccc1Oc1ccc(Cl)cc1Cl,carcinogen call,"Species: Hamster, Strain/Sex: Bio FID Alexander Syrian/Female (60/group), Route: Oral, Dose: 0, 12.5, 75, 250 mg/kg in diet for 90-95 wk, Dose: 0, 12.5, 75, 250 mg/kg in diet for 90-95 wk",inactive; negative (study details not given in source; purity 99.5%)
same,carcinogen call,"Species: Hamster, Strain/Sex: Bio FID Alexander Syrian/Male (60/group), Route: Oral, Dose: 0, 12.5, 75, 250 mg/kg in diet for 90-95 wk, Dose: 0, 12.5, 75, 250 mg/kg in diet for 90-95 wk",inactive; negative (study details not given in source; purity 99.5%)
same,carcinogen call,"Species: Rat, Strain/Sex: Sprague-Dawley/Female (60/group), Route: Oral, Dose: 0, 300, 1,200, 3,000 ppm in diet for 78 wk, Dose: 0, 300, 1,200, 3,000 ppm in diet for 78 wk",inactive; negative (study details not given in source; purity 99%)
same,carcinogen call,"Species: Rat, Strain/Sex: Sprague-Dawley/Male (60/group), Route: Oral, Dose: 0, 300, 1,200, 3,000 ppm in diet for 78 wk, Dose: 0, 300, 1,200, 3,000 ppm in diet for 78 wk",inactive; negative (study details not given in source; purity 99%)
C=CBr,carcinogen call,"Species: RAT, Strain/Sex: SPRAGUE-DAWLEY/FEMALE, Route: INHALATION, Dose: 10, 50, 250, 1250 PPM 6 HR/D 5/WK FOR 24 MO, Dose: 10, 50, 250, 1250 PPM 6 HR/D 5/WK FOR 24 MO, Tumor Site: Type of Lesion: LIVER: ANGIOSARCOMA, EAR (ZYMBAL GLAND): SQUAMOUS CELL CARCINOMA",active; positive
same,carcinogen call,"Species: RAT, Strain/Sex: SPRAGUE-DAWLEY/MALE, Route: INHALATION, Dose: 10, 50, 250, 1250 PPM 6 HR/D 5/WK FOR 24 MO, Dose: 10, 50, 250, 1250 PPM 6 HR/D 5/WK FOR 24 MO, Tumor Site: Type of Lesion: LIVER: ANGIOSARCOMA, EAR (ZYMBAL GLAND): PAPILLOMA, SQUAMOUS CELL CARCINOMA",active; positive
CCC1=C(C)CN(C(=O)NCCc2ccc(S(=O)(=O)NC(=O)NC3CCC(C)CC3)cc2)C1=O (stereo unspecified),carcinogen call,"Species: DOG, Strain/Sex: BEAGLE/FEMALE, Route: ORAL, Dose: 0, 0.8, 16, 320 MG/KG BW IN GELATIN CAPSULE 1/D 7 D/WK FOR 12 MO (STUDY DURATION: 15 MO), Dose: 0, 0.8, 16, 320 MG/KG BW IN GELATIN CAPSULE 1/D 7 D/WK FOR 12 MO (STUDY DURATION: 15 MO)",inactive; negative
same,carcinogen call,"Species: DOG, Strain/Sex: BEAGLE/MALE, Route: ORAL, Dose: 0, 0.8, 16, 320 MG/KG BW IN GELATIN CAPSULE 1/D 7 D/WK FOR 12 MO (STUDY DURATION: 13 MO), Dose: 0, 0.8, 16, 320 MG/KG BW IN GELATIN CAPSULE 1/D 7 D/WK FOR 12 MO (STUDY DURATION: 13 MO)",inactive; negative
same,carcinogen call,"Species: RAT, Strain/Sex: WISTAR/FEMALE, Route: ORAL, Dose: 0, 20, 1000, 50000 PPM IN DIET FOR 12 MO (STUDY DURATION: 13 MO), Dose: 0, 20, 1000, 50000 PPM IN DIET FOR 12 MO (STUDY DURATION: 13 MO)",inactive; negative
same,carcinogen call,"Species: RAT, Strain/Sex: WISTAR/MALE, Route: ORAL, Dose: 0, 20, 1000, 50000 PPM IN DIET FOR 12 MO (STUDY DURATION: 13 MO), Dose: 0, 20, 1000, 50000 PPM IN DIET FOR 12 MO (STUDY DURATION: 13 MO)",inactive; negative
Nc1ccc2c(c1)C(=O)c1ccccc1C2=O,carcinogen call,"Species: MOUSE, Strain/Sex: B6C3F1/FEMALE, Route: ORAL, Dose: 0, 0.5, 1.0% OF DIET, Dose: 0, 0.5, 1.0% OF DIET, Tumor Site: Type of Lesion: LYMPHATIC SYSTEM: MALIGNANT LYMPHOMA, LIVER: HEPATOCELLULAR CARCINOMA",active; positive
same,carcinogen call,"Species: MOUSE, Strain/Sex: B6C3F1/MALE, Route: ORAL, Dose: 0, 0.5, 1.0% OF DIET, Dose: 0, 0.5, 1.0% OF DIET, Tumor Site: Type of Lesion: LIVER: HEPATOCELLULAR CARCINOMA, ADENOMA",active; positive
same,carcinogen call,"Species: RAT, Strain/Sex: F344/MALE, Route: ORAL, Dose: 0, 0.35, 0.69% OF DIET, Dose: 0, 0.35, 0.69% OF DIET, Tumor Site: Type of Lesion: LIVER: HEPATOCELLULAR CARCINOMA, NEOPLASTIC NODULE",active; positive
O=C(c1ccccc1)C(O)c1ccccc1 (stereo unspecified),carcinogen call,"Species: MOUSE, Strain/Sex: B6C3F1/FEMALE, Route: ORAL, Dose: 0, 2500, 5000 PPM IN DIET, Dose: 0, 2500, 5000 PPM IN DIET",inactive; negative
same,carcinogen call,"Species: MOUSE, Strain/Sex: B6C3F1/MALE, Route: ORAL, Dose: 0, 2500, 5000 PPM IN DIET, Dose: 0, 2500, 5000 PPM IN DIET",inactive; negative
same,carcinogen call,"Species: RAT, Strain/Sex: F344/FEMALE, Route: ORAL, Dose: 0, 250, 500 PPM IN DIET, Dose: 0, 250, 500 PPM IN DIET",inactive; negative
same,carcinogen call,"Species: RAT, Strain/Sex: F344/MALE, Route: ORAL, Dose: 0, 125, 250 PPM IN DIET, Dose: 0, 125, 250 PPM IN DIET",inactive; negative
OCc1ccn2c1[C@H](O)CC2,carcinogen call,"Species: MOUSE, Strain/Sex: SWISS/FEMALE, Route: DERMAL/SUBCUTANEOUS, Dose: 0, 20 MG/KG IN 0.2 ML ACETONE TO SHAVED MID-BACK REGION AND 0, 20 MG/KG IN 0.1 ML PHOSPHATE BUFFER TO INTERSCAPULAR REGI, Dose: 0, 20 MG/KG IN 0.2 ML ACETONE TO SHAVED MID-BACK REGION AND 0, 20 MG/KG IN 0.1 ML PHOSPHATE BUFFER TO INTERSCAPULAR REGI, Tumor Site: Type of Lesion: SKIN: BASAL CELL CARCINOMA",active; positive
same,carcinogen call,"Species: MOUSE, Strain/Sex: SWISS/FEMALE, Route: DERMAL, Dose: 0, 20 MG/KG IN 0.2 ML ACETONE 1/WK FOR 4 WK AFTER 6 MO ANIMALS WITHOUT TUMORS TREATED AGAIN 1/WK FOR 2 WK (STUDY DURATIO, Tumor Site: Type of Lesion: SKIN: BASAL CELL CARCINOMA",active; positive
same,carcinogen call,"Species: MOUSE, Strain/Sex: SWISS/FEMALE, Route: SUBCUTANEOUS, Dose: 0, 20 MG/KG IN 0.1 ML PHOSPHATE BUFFER 1/WK FOR 4 WK AFTER 6 MO ANIMALS WITHOUT TUMORS TREATED AGAIN 1/WK FOR 2 WK (STUD, Tumor Site: Type of Lesion: SKIN: BASAL CELL CARCINOMA",active; positive
CCn1cc(C(=O)O)c(=O)c2cc(F)c(N3CCNCC3)cc21,carcinogen call,"Species: Rat, Strain/Sex: F344/Male (15/Group), Route: Oral, Dose: 0, 750, 1500 mg/kg daily for 3 wks after 2/3rd partial hepatectomy, from 2 wks after carcinogen dosing, 500 ppm phenobar, Tumor Site: Type of Lesion: Liver",inactive; negative
CCCCC1C(=O)N(c2ccccc2)N(c2ccccc2)C1=O,carcinogen call,"Species: MOUSE, Strain/Sex: B6C3F1/FEMALE, Route: GAVAGE, Dose: 0, 150, 300 MG/KG IN CORN OIL 5 D/WK FOR 103 WK (STUDY DURATION: 107 WK), Dose: 0, 150, 300 MG/KG IN CORN OIL 5 D/WK FOR 103 WK (STUDY DURATION: 107 WK)",inactive; negative
same,carcinogen call,"Species: MOUSE, Strain/Sex: B6C3F1/MALE, Route: GAVAGE, Dose: 0, 150, 300 MG/KG IN CORN OIL 5 D/WK FOR 103 WK (STUDY DURATION: 107 WK), Dose: 0, 150, 300 MG/KG IN CORN OIL 5 D/WK FOR 103 WK (STUDY DURATION: 107 WK), Tumor Site: Type of Lesion: LIVER: HEPATOCELLULAR ADENOMA, HEPATOCELLULAR ADENOMA OR CARCINOMA",active; positive
same,carcinogen call,"Species: RAT, Strain/Sex: F344/FEMALE, Route: GAVAGE, Dose: 0, 50, 100 MG/KG IN CORN OIL 5 D/WK FOR 103 WK (STUDY DURATION: 103 WK), Dose: 0, 50, 100 MG/KG IN CORN OIL 5 D/WK FOR 103 WK (STUDY DURATION: 103 WK), Tumor Site: Type of Lesion: KIDNEY: TRANSITIONAL EPITHELIAL CARCINOMA, TUBULAR CELL ADENOMA",active; positive
same,carcinogen call,"Species: RAT, Strain/Sex: F344/MALE, Route: GAVAGE, Dose: 0, 50, 100 MG/KG IN CORN OIL 5 D/WK FOR 103 WK (STUDY DURATION: 103 WK), Dose: 0, 50, 100 MG/KG IN CORN OIL 5 D/WK FOR 103 WK (STUDY DURATION: 103 WK), Tumor Site: Type of Lesion: KIDNEY: TUBULAR CELL ADENOMA, TUBULAR CELL ADENOMA OR CARCINOMA",equivocal
